From patent US12629392B2, “Method of treating covid-19 infection using superparamagnetic iron oxide nanoparticle” (Imam Abdulrahman Bin Faisal University, priority 2023, dated 2026)

Legend:
[1] = tested on: A549 cells; assay: Cell viability (MTT) assay, A549 cells; type: cell-based, human; details: 48 hours, two-way ANOVA with Dunnett's
[2] = tested on: HEK293 cells; assay: Cell viability (MTT) assay, HEK293 cells; type: cell-based, human; details: 48 hours, two-way ANOVA with Dunnett's
[3] = Dose 1 (0.025 mg/ml nanocomposite; 0.001125 mg/ml free Cp, Rib)
[4] = Dose 2 (0.05 mg/ml nanocomposite; 0.00225 mg/ml free Cp, Rib)
[5] = Dose 3 (0.1 mg/ml nanocomposite; 0.0045 mg/ml free Cp, Rib)
[6] = Dose 4 (0.5 mg/ml nanocomposite; 0.0225 mg/ml free Cp, Rib)

Structure (SMILES)	Significant (cell viability vs no-treatment control) [1, 3]	Significant (cell viability vs no-treatment control) [1, 4]	Significant (cell viability vs no-treatment control) [1, 5]	Significant (cell viability vs no-treatment control) [1, 6]	Significant (cell viability vs no-treatment control) [2, 3]	Significant (cell viability vs no-treatment control) [2, 4]	Significant (cell viability vs no-treatment control) [2, 5]	Significant (cell viability vs no-treatment control) [2, 6]
NC(=O)c1ncn([C@@H]2O[C@H](CO)[C@@H](O)[C@H]2O)n1 [Rib, 1-β-D-Ribofuranosyl-1,2,4-triazole-3-carboxamide]	No	No	No	Yes	No	No	Yes	Yes
N.N.[Cl][Pt][Cl] [Cp, cisplatin]	No	No	No	Yes	No	No	No	Yes
